Reference: patent publication US20190330224A1, “ACC INHIBITORS AND USES THEREOF” (Gilead Apollo, LLC, priority 2015, published 2019)
Values after ≈ are worked out from the molar mass of the structure shown. Where two headings read alike, the source gives them in different places.

Key:
ACC1 = ACC1 isolated from rat, mouse, monkey and human; cited from earlier work
ACC2 = ACC2 isolated from rat, mouse, monkey and human; cited from earlier work
Aspergillus fumigatus = assay: In vitro antifungal assay (broth microdilution, Micromyx), A. fumigatus; format: cell-based; conditions: 48 hr
Protocol: (§1) Compounds of the present invention were also assayed in an in vitro antifungal assay against Candida glabrata, Candida tropicalis, and Aspergillus fumigatus, performed by Micromyx, a representative procedure of which follows. The test organisms were reference strains acquired from the American Type Culture Collection (ATCC). Upon receipt, the isolates were streaked onto Sabouraud Dextrose Agar (SDA). Colonies were harvested from these plates and a cell suspension was prepared in Sabouraud Dextrose Broth (Becton Dickinson, Sparks, Md.) containing cryoprotectant. Aliquots were then frozen at −80° C. Prior to the assay, the frozen seeds of all yeast isolates to be tested in that session were thawed and streaked for isolation onto SDA and incubated overnight at 35° C. All fungal isolates were previously streaked on SDA and incubated at 35° C. until spore formation occurred, followed by harvesting of the spores in sterile 0.85% saline and enumeration. The spore preps were stored at 4° C. Yeast and fungal isolates were tested in RPMI medium (Catalog No. SH30011.04; Lot No. AYB60287A; HyClone Labs, Logan, Utah) buffered with 0.165 M MOPS (Catalog No. 475898; Lot No. D00165859; CalBiochem, La Jolla, Calif.). The pH of the medium was adjusted to 7.0 with 1 N NaOH, sterile filtered using a 0.2 μm PES filter, and stored at 4° C. until used. All of the above media was prepared and stored according to guidelines from the Clinical and Laboratory Standards Institute (CLSI; 2-4). The broth microdilution assay method essentially followed the procedure described by CLSI (2-4) and employed automated liquid handlers to conduct serial dilutions and liquid transfers. Automated liquid handlers included the Multidrop 384 (Labsystems, Helsinki, Finland) and Biomek 2000 (Beckman Coulter, Fullerton Calif. The wells in columns 2-12 in standard 96-well microdilution plates (Costar 3795) were filled with 150 μl of the correct diluent. These would become the ‘mother plates’ from which ‘daughter’ or test plates would be prepared. The drugs (300 μL at 40× the desired top concentration in the test plates) were dispensed into the appropriate well in Column 1 of the mother plates. The Biomek 2000 was used to make serial two-fold dilutions through Column 11 in the “mother plate”. The wells of Column 12 contained no drug and were the organism growth control wells. The daughter plates were loaded with 185 μL per well of the appropriate test media using the Multidrop 384. The daughter plates were prepared using the Biomek FX which transferred 5 μL of drug solution from each well of a mother plate to the corresponding well of the correct daughter plate in a single step. A standardized inoculum of each organism was prepared per CLSI methods (2-4). For yeast isolates, colonies were picked from the primary plate and a suspension was prepared to equal a 0.5 McFarland turbidity standard. Suspensions were then diluted 1:100 in RPMI 1640 medium, resulting in a final inoculum concentration of 0.5-2.5×10^3 CFU/mL per test well. […] Standardized inoculum suspensions were transferred to compartments of sterile reservoirs divided by length (Beckman Coulter), and the Biomek 2000 was used to inoculate all plates. Daughter plates were placed on the Biomek 2000 in reverse orientation so that plates were inoculated from low to high drug concentration. The Biomek 2000 delivered 10 μL of standardized inoculum into each well of the appropriate daughter plate for an additional 1:20 dilution. Thus, the wells of the daughter plates ultimately contained 185 μL of the appropriate media, 5 μL of drug solution, and 10 μL of inoculum. The final concentration of DMSO (if used as a solvent) in the test well was 2.5%. Plates were stacked 3 high, covered with a lid on the top plate, placed into plastic bags, and incubated at 35° C. for approximately 24-48 hr for all yeast isolates, and 48 hr for all fungal isolates. Plates were viewed from the bottom using a plate viewer. […]

Candida tropicalis = assay: In vitro antifungal assay (broth microdilution, Micromyx), C. tropicalis; format: cell-based; conditions: ATCC90874, strain 0636 ATCC 90874, 35° C., approximately 24-48 hr
Protocol: as §1

Candida glabrata = assay: In vitro antifungal assay (broth microdilution, Micromyx), C. glabrata; format: cell-based; conditions: Nakaseomyces glabratus, ATCC90030, strain 0635 ATCC 90030, 35° C., approximately 24-48 hr
Protocol: as §1

Human ACC2 = Human ACC2 (Homo sapiens, UniProt O00763); assay: In vitro ACC2 inhibition assay (ADP-Glo), human ACC2; format: biochemical; conditions: 5 nM ACC2, 20 μM ATP, 20 μM acetyl-CoA
C. albicans ATCC 90028 = assay: Anti-Fungal Activity Assay (broth microtiter MIC), C. albicans; format: cell-based, Candida albicans; conditions: Candida albicans, ATCC90028, 48 h, 3 replicates; MIC recorded at 48 h; read-out: MIC C. albicans ATCC 90028
Procedure, shortened: (§2)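 Plate from frozen stock onto Sabouraud dextrose agar, 35° C overnight; swab colonies into RPMI 1640+MOPS; set density via standard curves; run CLSI M27-A3 broth microdilution; score MIC visually versus growth control at 48 h, soraphen additionally at 24 h.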

C. krusei ATCC 6258 = assay: Anti-Fungal Activity Assay (broth microtiter MIC), C. krusei; format: cell-based, Candida krusei; conditions: Pichia kudriavzevii, ATCC6258, 48 h, 3 replicates; MIC recorded at 48 h; read-out: MIC C. krusei ATCC 6258
Procedure, shortened: as §2

[1] = system: C. parapsilosis ATCC 22019; assay: Anti-Fungal Activity Assay (broth microtiter MIC), C. parapsilosis; format: cell-based, Candida parapsilosis; conditions: Lodderomyces parapsilosis, ATCC22019, 48 h, 3 replicates; MIC recorded at 48 h; read-out: MIC C. parapsilosis ATCC 22019
Procedure, shortened: as §2

Fungal ACC2 = Fungal ACC2 (UniProt Q00955); conditions: read-out: Fungal ACC2 (IC50, in vitro ACC2 inhibition)
[2] = strain 5280 ATCC MYA-3626, 35° C., read-out: MIC, A. fumigatus 5280 ATCC MYA-3626
[3] = strain 6781 ATCC MYA-4609, 35° C., read-out: MIC, A. fumigatus 6781 ATCC MYA-4609

Chain of Human ACC2 (O00763 whole entry): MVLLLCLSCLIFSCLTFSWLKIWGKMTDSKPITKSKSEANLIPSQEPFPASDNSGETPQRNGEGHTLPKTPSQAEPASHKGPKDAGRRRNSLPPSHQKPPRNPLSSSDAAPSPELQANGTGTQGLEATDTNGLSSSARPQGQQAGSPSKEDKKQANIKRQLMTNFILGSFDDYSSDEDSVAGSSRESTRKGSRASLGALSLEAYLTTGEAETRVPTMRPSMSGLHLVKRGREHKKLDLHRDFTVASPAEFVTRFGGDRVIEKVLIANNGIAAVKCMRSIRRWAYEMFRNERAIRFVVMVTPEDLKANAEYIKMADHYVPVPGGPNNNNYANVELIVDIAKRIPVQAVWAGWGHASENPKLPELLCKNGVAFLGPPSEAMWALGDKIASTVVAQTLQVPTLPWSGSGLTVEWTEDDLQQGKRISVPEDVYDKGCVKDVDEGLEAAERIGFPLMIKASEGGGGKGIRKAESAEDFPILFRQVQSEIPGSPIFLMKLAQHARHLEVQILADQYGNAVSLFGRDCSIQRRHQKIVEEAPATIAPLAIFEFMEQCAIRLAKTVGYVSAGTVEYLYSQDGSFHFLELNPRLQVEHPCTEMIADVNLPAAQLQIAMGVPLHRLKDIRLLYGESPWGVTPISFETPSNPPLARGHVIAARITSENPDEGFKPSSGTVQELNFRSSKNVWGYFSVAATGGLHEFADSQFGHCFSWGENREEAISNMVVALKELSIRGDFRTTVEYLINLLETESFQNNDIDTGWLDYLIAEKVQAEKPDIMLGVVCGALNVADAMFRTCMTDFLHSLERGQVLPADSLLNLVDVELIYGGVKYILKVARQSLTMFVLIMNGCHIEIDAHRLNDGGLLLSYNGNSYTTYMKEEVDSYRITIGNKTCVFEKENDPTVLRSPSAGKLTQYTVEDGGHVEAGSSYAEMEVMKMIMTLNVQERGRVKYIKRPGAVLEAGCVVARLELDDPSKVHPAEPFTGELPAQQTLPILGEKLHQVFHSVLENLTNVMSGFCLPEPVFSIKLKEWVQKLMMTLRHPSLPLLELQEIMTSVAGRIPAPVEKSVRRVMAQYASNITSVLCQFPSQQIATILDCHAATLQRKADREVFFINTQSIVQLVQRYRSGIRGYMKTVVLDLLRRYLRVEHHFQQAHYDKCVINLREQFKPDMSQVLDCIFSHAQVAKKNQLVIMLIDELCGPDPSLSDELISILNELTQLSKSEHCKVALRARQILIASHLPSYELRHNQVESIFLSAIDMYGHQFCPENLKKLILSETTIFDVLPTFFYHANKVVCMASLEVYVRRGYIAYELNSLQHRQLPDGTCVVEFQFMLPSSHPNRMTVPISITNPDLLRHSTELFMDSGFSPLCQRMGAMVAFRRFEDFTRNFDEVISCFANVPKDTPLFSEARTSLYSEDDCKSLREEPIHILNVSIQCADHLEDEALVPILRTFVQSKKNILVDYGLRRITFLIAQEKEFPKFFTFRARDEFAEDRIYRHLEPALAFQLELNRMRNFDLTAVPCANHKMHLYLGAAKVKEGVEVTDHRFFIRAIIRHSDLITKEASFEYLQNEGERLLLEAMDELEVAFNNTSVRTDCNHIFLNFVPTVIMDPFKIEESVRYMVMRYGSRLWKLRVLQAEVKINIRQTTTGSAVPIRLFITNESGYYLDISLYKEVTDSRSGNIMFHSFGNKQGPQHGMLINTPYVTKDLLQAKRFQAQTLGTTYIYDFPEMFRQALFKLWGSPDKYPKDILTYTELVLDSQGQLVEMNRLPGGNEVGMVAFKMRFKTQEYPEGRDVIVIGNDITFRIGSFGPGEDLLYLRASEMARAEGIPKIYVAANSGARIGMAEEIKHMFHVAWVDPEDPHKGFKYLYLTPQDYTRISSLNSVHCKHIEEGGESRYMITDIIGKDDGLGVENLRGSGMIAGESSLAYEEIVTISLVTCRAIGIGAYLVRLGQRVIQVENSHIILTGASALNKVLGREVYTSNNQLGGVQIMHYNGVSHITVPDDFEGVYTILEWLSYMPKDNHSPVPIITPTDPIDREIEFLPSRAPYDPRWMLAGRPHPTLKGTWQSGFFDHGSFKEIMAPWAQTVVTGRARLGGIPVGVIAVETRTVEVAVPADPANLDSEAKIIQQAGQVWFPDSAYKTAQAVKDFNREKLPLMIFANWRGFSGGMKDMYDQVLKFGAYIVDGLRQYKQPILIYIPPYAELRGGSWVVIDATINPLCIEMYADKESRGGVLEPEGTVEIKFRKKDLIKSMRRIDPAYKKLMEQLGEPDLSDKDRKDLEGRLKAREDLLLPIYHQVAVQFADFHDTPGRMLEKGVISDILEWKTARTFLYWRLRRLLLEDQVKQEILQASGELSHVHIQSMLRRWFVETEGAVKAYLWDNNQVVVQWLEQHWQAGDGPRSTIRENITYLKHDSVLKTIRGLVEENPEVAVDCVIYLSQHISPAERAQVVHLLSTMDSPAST
Chain of Fungal ACC2 (Q00955 whole entry): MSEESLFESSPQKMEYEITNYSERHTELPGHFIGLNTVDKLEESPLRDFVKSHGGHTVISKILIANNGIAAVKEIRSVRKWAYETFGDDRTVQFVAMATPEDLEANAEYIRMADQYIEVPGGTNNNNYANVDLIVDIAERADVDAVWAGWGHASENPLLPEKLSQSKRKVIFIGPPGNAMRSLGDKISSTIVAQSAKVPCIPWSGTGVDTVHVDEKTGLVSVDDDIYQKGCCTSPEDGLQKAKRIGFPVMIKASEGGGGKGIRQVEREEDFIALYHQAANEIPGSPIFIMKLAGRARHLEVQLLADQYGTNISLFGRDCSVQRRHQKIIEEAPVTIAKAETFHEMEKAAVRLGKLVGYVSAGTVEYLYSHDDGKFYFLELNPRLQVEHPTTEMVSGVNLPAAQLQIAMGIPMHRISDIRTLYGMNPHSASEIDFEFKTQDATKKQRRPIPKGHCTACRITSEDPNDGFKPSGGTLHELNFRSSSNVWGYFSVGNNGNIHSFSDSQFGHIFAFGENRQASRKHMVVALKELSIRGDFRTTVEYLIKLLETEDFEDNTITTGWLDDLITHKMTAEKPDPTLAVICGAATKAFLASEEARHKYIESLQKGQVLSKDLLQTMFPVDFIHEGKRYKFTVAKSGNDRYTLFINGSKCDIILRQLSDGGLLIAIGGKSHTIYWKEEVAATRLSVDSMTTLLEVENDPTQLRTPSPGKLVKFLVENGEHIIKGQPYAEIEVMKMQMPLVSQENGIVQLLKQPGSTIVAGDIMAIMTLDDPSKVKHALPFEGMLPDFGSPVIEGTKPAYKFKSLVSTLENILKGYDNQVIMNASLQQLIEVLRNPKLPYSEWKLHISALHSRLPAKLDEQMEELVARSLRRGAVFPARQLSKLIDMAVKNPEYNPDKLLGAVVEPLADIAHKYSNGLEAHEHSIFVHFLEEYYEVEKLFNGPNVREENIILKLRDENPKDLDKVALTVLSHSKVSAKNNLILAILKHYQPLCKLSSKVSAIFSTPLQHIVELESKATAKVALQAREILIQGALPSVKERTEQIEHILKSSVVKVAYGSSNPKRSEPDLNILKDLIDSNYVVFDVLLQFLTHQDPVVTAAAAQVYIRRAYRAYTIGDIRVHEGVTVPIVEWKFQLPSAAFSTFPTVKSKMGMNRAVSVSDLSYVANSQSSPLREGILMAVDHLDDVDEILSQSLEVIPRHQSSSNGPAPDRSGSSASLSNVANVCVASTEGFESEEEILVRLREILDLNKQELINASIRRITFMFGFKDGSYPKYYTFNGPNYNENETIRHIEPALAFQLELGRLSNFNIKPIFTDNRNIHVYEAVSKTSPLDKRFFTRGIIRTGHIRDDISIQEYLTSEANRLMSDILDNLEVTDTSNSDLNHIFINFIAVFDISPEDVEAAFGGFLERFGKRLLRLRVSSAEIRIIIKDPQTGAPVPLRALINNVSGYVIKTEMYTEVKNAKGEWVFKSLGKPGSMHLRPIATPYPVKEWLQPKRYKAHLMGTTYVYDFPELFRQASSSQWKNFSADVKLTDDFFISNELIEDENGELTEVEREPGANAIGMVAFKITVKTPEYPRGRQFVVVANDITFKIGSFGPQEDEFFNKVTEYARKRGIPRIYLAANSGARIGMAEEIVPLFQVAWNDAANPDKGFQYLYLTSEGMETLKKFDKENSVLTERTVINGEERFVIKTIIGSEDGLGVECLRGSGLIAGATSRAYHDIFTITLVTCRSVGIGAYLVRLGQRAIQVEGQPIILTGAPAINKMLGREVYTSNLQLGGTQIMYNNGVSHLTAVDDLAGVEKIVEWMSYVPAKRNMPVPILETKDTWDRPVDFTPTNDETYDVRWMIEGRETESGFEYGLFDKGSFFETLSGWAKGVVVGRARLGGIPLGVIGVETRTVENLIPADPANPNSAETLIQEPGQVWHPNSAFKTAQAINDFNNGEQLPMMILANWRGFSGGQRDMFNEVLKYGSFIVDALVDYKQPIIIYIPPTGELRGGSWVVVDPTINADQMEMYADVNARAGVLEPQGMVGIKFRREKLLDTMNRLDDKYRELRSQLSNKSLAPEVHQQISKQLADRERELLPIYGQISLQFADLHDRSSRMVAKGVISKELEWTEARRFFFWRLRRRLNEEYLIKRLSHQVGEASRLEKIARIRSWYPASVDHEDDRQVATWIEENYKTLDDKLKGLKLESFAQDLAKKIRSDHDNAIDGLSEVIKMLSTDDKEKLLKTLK

MIC (Aspergillus fumigatus; [2]) | MIC (Aspergillus fumigatus; [3]) | MIC (Candida tropicalis) | MIC (Candida glabrata) | IC50 (Human ACC2) | MIC (C. albicans ATCC 90028) | MIC (C. krusei ATCC 6258) | MIC [1] | SMILES | IC50 (ACC1) | IC50 (ACC2) | IC50 (Fungal ACC2)
0.25 to 1 mg/L (≈ 0.408 to 1.63 µM) | 0.25 to 1 mg/L (≈ 0.408 to 1.63 µM) | 0.25 to 1 mg/L (≈ 0.408 to 1.63 µM) | > 4.1 mg/L | 0.002 to 0.01 µM | – | – | – | CCN1CCC(n2c(=O)c3c(C)c(-n4nccn4)sc3n(C[C@H](OC3CCOCC3)c3cc(F)ccc3OC)c2=O)C1=O (stereo partly drawn) [Compound I-11, 3-(1-ethyl-2-oxopyrrolidin-3-yl)-1-((R)-2-(5-fluoro-2-methoxyphenyl)-2-((tetrahydro-2H-pyran-4-yl)oxy)ethyl)-5-methyl-6-(2H-1,2,3-triazol-2-yl)thieno[2,3-d]pyrimidine-2,4(1H,3H)-dione] | – | – | –
1.1 to 2 mg/L (≈ 1.88 to 3.42 µM) | 1.1 to 2 mg/L (≈ 1.88 to 3.42 µM) | 0.25 to 1 mg/L (≈ 0.428 to 1.71 µM) | > 4.1 mg/L | 0.002 to 0.01 µM | 0.25 to 1 mg/L (≈ 0.428 to 1.71 µM) | 0.25 to 1 mg/L (≈ 0.428 to 1.71 µM) | 0.25 to 1 mg/L (≈ 0.428 to 1.71 µM) | COc1ccc(F)cc1[C@H](Cn1c(=O)n([C@@H]2CCNC2=O)c(=O)c2c(C)c(-n3nccn3)sc21)OC1CCOCC1 [Compound I-34, 1-((R)-2-(5-fluoro-2-methoxyphenyl)-2-((tetrahydro-2H-pyran-4-yl)oxy)ethyl)-5-methyl-3-((R)-2-oxopyrrolidin-3-yl)-6-(2H-1,2,3-triazol-2-yl)thieno[2,3-d]pyrimidine-2,4(1H,3H)-dione] | – | – | –
1.1 to 2 mg/L (≈ 1.84 to 3.34 µM) | 1.1 to 2 mg/L (≈ 1.84 to 3.34 µM) | 0.25 to 1 mg/L (≈ 0.418 to 1.67 µM) | > 4.1 mg/L | 0.002 to 0.01 µM | 0.25 to 1 mg/L (≈ 0.418 to 1.67 µM) | 0.25 to 1 mg/L (≈ 0.418 to 1.67 µM) | 0.25 to 1 mg/L (≈ 0.418 to 1.67 µM) | COc1ccc(F)cc1[C@H](Cn1c(=O)n([C@H]2CCCNC2=O)c(=O)c2c(C)c(-n3nccn3)sc21)OC1CCOCC1 [Compound I-37, 1-((R)-2-(5-fluoro-2-methoxyphenyl)-2-((tetrahydro-2H-pyran-4-yl)oxy)ethyl)-5-methyl-3-((S)-2-oxopiperidin-3-yl)-6-(2H-1,2,3-triazol-2-yl)thieno[2,3-d]pyrimidine-2,4(1H,3H)-dione] | – | – | –

Continued, molecule first:

SMILES | MIC (Aspergillus fumigatus; [2]) | MIC (Aspergillus fumigatus; [3]) | MIC (Candida tropicalis) | MIC (Candida glabrata) | IC50 (Human ACC2) | MIC (C. albicans ATCC 90028) | MIC (C. krusei ATCC 6258) | MIC [1] | IC50 (ACC1) | IC50 (ACC2) | IC50 (Fungal ACC2)
O=C(c1c2ccccc2cc2ccccc12)N1CCC(N2CCC[C@@H](C(=O)N3CCOCC3)C2)CC1 [CP-640186] | – | – | – | – | – | – | – | – | ~0.06 µM | ~0.06 µM | –
COc1ccc(F)cc1[C@H](Cn1c(=O)n(C2CCN(C(C)C)C2=O)c(=O)c2c(C)c(-n3nccn3)sc21)OC1CCOCC1 (stereo partly drawn) [Compound I-12, 1-((R)-2-(5-fluoro-2-methoxyphenyl)-2-((tetrahydro-2H-pyran-4-yl)oxy)ethyl)-3-(1-isopropyl-2-oxopyrrolidin-3-yl)-5-methyl-6-(2H-1,2,3-triazol-2-yl)thieno[2,3-d]pyrimidine-2,4(1H,3H)-dione] | 0.25 to 1 mg/L (≈ 0.399 to 1.6 µM) | 0.25 to 1 mg/L (≈ 0.399 to 1.6 µM) | 0.25 to 1 mg/L (≈ 0.399 to 1.6 µM) | > 4.1 mg/L | 0.002 to 0.01 µM | 0.25 to 1 mg/L (≈ 0.399 to 1.6 µM) | 0.25 to 1 mg/L (≈ 0.399 to 1.6 µM) | 0.25 to 1 mg/L (≈ 0.399 to 1.6 µM) | – | – | –
COc1ccc(F)cc1[C@H](Cn1c(=O)n([C@@H]2CCN(C)C2=O)c(=O)c2c(C)c(-n3nccn3)sc21)OC1CCOCC1 [Compound I-36, 1-((R)-2-(5-fluoro-2-methoxyphenyl)-2-((tetrahydro-2H-pyran-4-yl)oxy)ethyl)-5-methyl-3-((R)-1-methyl-2-oxopyrrolidin-3-yl)-6-(2H-1,2,3-triazol-2-yl)thieno[2,3-d]pyrimidine-2,4(1H,3H)-dione] | 0.25 to 1 mg/L (≈ 0.418 to 1.67 µM) | 0.25 to 1 mg/L (≈ 0.418 to 1.67 µM) | 0.25 to 1 mg/L (≈ 0.418 to 1.67 µM) | > 4.1 mg/L | 0.002 to 0.01 µM | 0.25 to 1 mg/L (≈ 0.418 to 1.67 µM) | 0.25 to 1 mg/L (≈ 0.418 to 1.67 µM) | 0.25 to 1 mg/L (≈ 0.418 to 1.67 µM) | – | – | 0.002 to 0.01 µM
COc1ccc(F)cc1[C@H](Cn1c(=O)n([C@H]2CCCN(C)C2=O)c(=O)c2c(C)c(-n3nccn3)sc21)OC1CCOCC1 [Compound I-39, 1-((R)-2-(5-fluoro-2-methoxyphenyl)-2-((tetrahydro-2H-pyran-4-yl)oxy)ethyl)-5-methyl-3-((S)-1-methyl-2-oxopiperidin-3-yl)-6-(2H-1,2,3-triazol-2-yl)thieno[2,3-d]pyrimidine-2,4(1H,3H)-dione] | 1.1 to 2 mg/L (≈ 1.8 to 3.26 µM) | 1.1 to 2 mg/L (≈ 1.8 to 3.26 µM) | 0.25 to 1 mg/L (≈ 0.408 to 1.63 µM) | > 4.1 mg/L | 0.002 to 0.01 µM | 0.25 to 1 mg/L (≈ 0.408 to 1.63 µM) | 0.25 to 1 mg/L (≈ 0.408 to 1.63 µM) | 0.25 to 1 mg/L (≈ 0.408 to 1.63 µM) | – | – | 0.0007 to 0.002 µM
